# Measurements taken from US8710097B2, “Flavonoid dimers and methods of making and using such” (The Hong Kong Polytechnic University, priority 2006, dated 2014).
# “And” between values parts separate entries of the source, which are not always exact repeats. Equal values may be shown once.
# Experiments:
# P388/ADR cells = test: cells; conditions: P388/ADR
# Experimental: MDA435/LCC6 and P388 (both parent and MDR subtype) were maintained in DMEM and RPMI 1640 culture medium supplemented with 10% FBS, respectively. RPMI 1640 media also contained 100 units/ml penicillin and 100 μg/ml streptomycin. Cells were cultured at 37° C. in a humidified atmosphere with 5% CO2. A solution of 0.05% trypsin-EDTA was used to detach the MDA435/LCC6 (both wild type and MDR subtype) cells.
# Cell proliferation assay. MDA435/LCC6 and P388 (both parent and MDR subtype) cells were seeded at 2000 and 5000 cells per well, respectively, in 96-well plates. Varying concentrations of anticancer drugs (Doxorubicin, Daunorubicin, Vincristine, Vinblastine, taxol, Mitoxantrone) with or without the flavonoid dimers were added in a final volume of 200 μl and cells were grown for 4 and 3 days for MDA435/LCC6 and P388 (both parent and MDR subtype) cells, respectively. For MDA435/LCC6 (both parent and MDR subtype), the corresponding drugs were added after cell attachment (24 hr incubation). To measure cell proliferation, the cell Titer 960 Aqueous Assay (Promega) was used according to the manufacturer's instructions. Briefly, MTS (2 mg/ml) and PMS (0.92 mg/ml) were mixed in a ratio of 20:1. 30 μl MTS/PMS mixture was added into each well and incubated for 2 hours at 37° C. Optical absorbance at 490 nm was then recorded using an ELISA microtiter plate reader (Bio-Rad). Each experiment was done at least in triplicate and repeated twice. Cytotoxicity of the anticancer drugs was expressed as the fraction of the cells survived relative to the untreated DMSO (0.05%) solvent controls.
# [1] = tested on: tested MDR cell lines (drug resistant breast cancer and leukemia cells); format: cell-based
# Description: Cell proliferation assay.
# MDA435/LCC6 MDR cells = test: Doxorubicin accumulation; format: cell-based, human
# Experimental: Doxorubicin accumulation. 2.5 ml (10^5 cells/ml) MDA435/LCC6 (both parent and MDR subtype) cells were seeded in each well of 6-well plates. At confluence, culture medium was removed. 2 ml of fresh DMEM with modulators was added and cells were incubated for 30 min at 37° C. Doxorubicin (final concentration of 20 μM) was then added and incubated for 2 h at 37° C. The cells were then harvested by trypsinization.
# For P388 (both parent and MDR subtype) cells, 1 ml (10^5 cells) confluent cells were aliquot into Eppendorf tube and pre-incubated with flavone dimers for 30 min at 37° C. Doxorubicin (final concentration of 10 μM) was then added and incubated for 2 h at 37° C. at a final concentration of 10 μM. The cell pellets were washed 3 times with cold PBS by using an Eppendorf micro-centrifuge and lysed with 0.3N HCL in 50% ethanol, and sonicated for 30s. After centrifugation at 10000 rpm/min for 3 min, the supernatant was saved. The fluorescence of doxorubicin was measured using a spectrofluorometer (λexcite=470 nm, λemit=585 nm).
# In order to understand whether the modulating activity for various anticancer drugs by different dimers is due to their different ability to modulate P-gp mediated drug efflux, their effects on the accumulation of doxorubicin in both MDA435/LCC6 sensitive and resistant cells were investigated. Doxorubicin was a fluorescent drug substrate of P-gp and was used in this experiment to monitor the P-gp mediated drug efflux. Accumulation of doxorubicin in these cells was determined in the presence or absence of apigenin dimers (10 μM) and monomer (20 μM). Verapamil was used as a positive control.
# [2] = tested on: LeMDR1 knockout (LeMDR1 −/−) L. enriettii; test: Leishmania cell viability (MTS) assay; format: cell-based, Leishmania enriettii; conditions: LeMDR1 −/−
# Description: (§1) Cell lines and Cell Culture.
# [3] = tested on: LeMDR1 overexpressed L. enriettii (LeV160); test: Leishmania cell viability (MTS) assay; format: cell-based, Leishmania enriettii; conditions: LeV160
# Description: as §1
# [4] = tested on: wild type L. enriettii (Le); test: Leishmania cell viability (MTS) assay; format: cell-based, Leishmania enriettii; conditions: Le wild type
# Experimental: Cell lines and Cell Culture. Promastigotes of Leishmania enriettii (LePentR50, Le wild type, LeMDR1 −/− and LeMDR1-overexpressed LeV160 mutants) and Leishmania donovani (LdAG83, Ld2001 and Ld39) were employed in this study. The former is a natural infective strain of guinea pig and the latter is a clinical strain, which may cause visceral leishmaniasis in human. Both strains were cultured in Schneider's Drosophila Medium (Invitrogen), pH 6.9 supplemented with 10% (v/v) heat inactivated fetal calf serum (Hyclone) with 4 mM glutamine (Sigma) and 25 μg/mL gentamicin solution (Invitrogen), at 27° C. for 4 days (Cloning and functional analysis of an extrachromosomally amplified multidrug resistance-like gene in Leishmania enriettii. Mol. Biochem. Parasitol 1993, 60, 195-208).
# Promastigotes of LeV160 were culture in the presence of 160 μg/mL vinblastine. No pentamidine and vinblastine (Sigma) was added to the Le wild type and LeMDR1 −/− mutant.
# The viability of promastigotes was determined by the Cell Titer 96® Aqueous Assay (Promega) that employs a tetrazolium compound (MTS) and electron coupling reagent, phenazine methosulfate (PMS). Promastigotes were seeded into 96-well flat bottom microtiter plate at 1×10^5 cells per well in a final volume of 100 μL medium. To determine the cytotoxic effects of flavonoid dimers to the parasites, various concentrations of flavonoid dimers were added to the promastigotes. To determine the reversal effects of flavonoid dimers with different spacer lengths, various concentrations of antileishmanial drugs, one of pentamidine or SSG, vinblastine and puromycin was added to the wells with or without flavonoid dimers. The parasites were incubated at 27° C. for 72 hrs. Each concentration of antileishmanials with or without the flavonoid dimers was tested in triplicates in each experiment. A 2 mg/mL MTS and 0.92 mg/mL PMS were mixed at a ratio of 20:1 (MTS: PMS). […] After 4 hrs of incubation, the OD values were determined at 490 nm using automatic microtiter plate reader (Bio-Rad).
compound,measurement,setting,value
"O=c1cc(-c2ccc(OCCOCCOCCOCCOc3ccc(-c4cc(=O)c5c(O)cc(O)cc5o4)cc3)cc2)oc2cc(O)cc(O)c12 [Compound 9d, 1,13-Bis[4′-((5,7-dihydroxy)-4H-chromen-4-on-2-yl)phenyl]-1,4,7,10,13-pentaoxamidecane]","reversal of resistance to taxol, vincristine and vinblastine",P388/ADR cells; 5 μM 9d,completely reverse the resistance of P388/ADR to almost the sensitive level
same,effect on mitoxantrone resistance,P388/ADR cells; 9d,no effect
same,saturating concentration for reversing doxorubicin and daunorubicin resistance,"P388/ADR cells; FIG. 8B, 9B",about 5 μM
same,"RF, daunorubicin",P388/ADR cells; daunorubicin + 5 μM 9d or VP,20
same,"RF, doxorubicin",P388/ADR cells; doxorubicin + 5 μM 9d,14
same,"RF, mitoxantrone",P388/ADR cells; mitoxantrone + 5 μM 9d,2
same,"RF, taxol",P388/ADR cells; taxol + 5 μM 9d,55
same,"RF, vinblastine",P388/ADR cells; vinblastine + 5 μM 9d,22
same,"RF, vincristine",P388/ADR cells; vincristine + 5 μM 9d,66
same,increase of cytotoxicity of anticancer drugs,[1],6-50 RF
same,doxorubicin accumulation relative to 9d-treated LCC6 cells,"MDA435/LCC6 MDR cells; LCC6 MDR, 10 μM 9d",97%
same,"enhancement of doxorubicin accumulation, folds of control","MDA435/LCC6 MDR cells; LCC6 MDR, apigenin dimers 10 μM, 20 μM doxorubicin, 2 h",5.8 folds and 4 folds
same,"intracellular doxorubicin concentration, % of the LCC6","MDA435/LCC6 MDR cells; MDA435/LCC6 MDR, 10 μM 9d, FIG. 7B",88%
same,pentamidine sensitization,[2],4.1 fold
same,decrease of IC50 of pentamidine,[3],~1.9 fold
same,decrease of IC50 of pentamidine,[4],about 3 fold
